The text below walks through data of patent US20100119997A1, “METHOD FOR PRODUCTION OF MESENCHYMAL CELL, METHOD FOR PRODUCTION OF TOOTH, AND MESENCHYMAL CELL FOR FORMATION OF TOOTH” (ORGAN TECHNOLOGIES INC., priority 2007, published 2010).

Each structure is given as a SMILES string.

Data set [1] deals with AT805 cells (EC cells). Description: Differentiation induction of EC cells by DMSO, CD44/CD29 double staining and cell sorter. The class given is cell-based, mouse. Conditions: for CD44-positive and CD29-positive cells / Cell number: 14 h treatment. Here is the method:
As the EC cells, AT805 cells (a clone derived from OTT6050, EC cells of the strain129; obtained from the Cell Bank, RIKEN Bioresource Center) were used. Culturing of AT805 cells was performed using Dulbecco's modified Eagle's medium (DMEM; manufactured by SIGMA or Kohjin Bio Co. Ltd.) supplemented with 10% by volume fetal calf serum (FCS: manufactured by JRH, JBS or Hyclone) and 55 μM 2-mercaptoethanol (manufactured by GIBCO). EC cells were usually plated at a concentration of 5 to 8×10^5 cells per 100 mm dish, and complete replacement of the medium and passage culture were repeated every other day. In passage culture, the cells were washed once with HCMF buffer (pH7.4; 10 mM Hepes, 136.9 mM NaCl, 0.34 mM […], 13.9 mM glucose, 5.37 mM KCl), and 5 ml of an enzyme solution wherein trypsin-EDTA.2Na (manufactured by GIBCO) was dissolved at the final concentration of 0.025% was then added thereto, followed by an enzyme treatment at 37° C. for 1 minute. Subsequently, an equal amount of DMEM supplemented with 10% FCS was added to disperse the cells, and the cells were then precipitated and collected by centrifugation. The collected cells were resuspended and plated on a new culture dish to carry out passage culture.
EC cells collected by trypsin treatment were suspended in DMEM supplemented with 10% by volume FCS and dimethylsulfoxide (DMSO: manufactured by SIGMA) at the final concentration of 0.5 to 5% by volume, and plated at the concentration of 1.0×10^6 cells per 100 mm dish. Culture was carried out under 5% CO2 at 37° C., and after 14 hours, the cells were washed once with HCMF buffer, followed by replacement of the medium with DMEM supplemented with 10% by volume FCS.
EC cells treated with DMSO was continuously cultured for 6 days (19 days only in the case of 5% by volume DMSO) with replacement of a half amount of the medium every 3 days with DMEM supplemented with 10% by volume FCS, and observation was carried out as appropriate. When a cell population containing undifferentiated cells was grown, it washed once with HCMF buffer and then suspended by addition of Ca^2+/Mg^2+-free PBS(−)(EDTA/BSA-PBS) supplemented with 3 mM EDTA and 0.5% BSA, followed by centrifugation to collect cells as precipitates. The cells were resuspended in EDTA/BSA-PBS and then subjected to double staining with an FITC-labeled anti-CD44 antibody (CD44-FITC: manufactured by BD Pharmingen) and a PE-labeled anti-CD29 antibody (CD29-PE: manufactured by BD Pharmingen). A CD44-positive and CD29-positive cell fraction was isolated using a cell sorter, Epics ALTRA (manufactured by Beckman Coulter), to obtain an EC cell fraction wherein differentiation was induced by a DMSO treatment and undifferentiated EC cell were excluded (see FIG. 2). These cells were designated DMSO-EC cells.

Data set [2] has as its system AT805 cells (EC cells). Briefly: Differentiation induction of EC cells by retinoic acid, CD44/CD29 double staining and cell sorter. The format is cell-based, mouse. Conditions: 72 h treatment, 7 culture days. Here is the method: AT805 cells collected by a trypsin treatment in the same manner as in Example 1 were plated at a concentration of 1.0×10^6 cells per 100 mm dish, and, on the next day, the medium was replaced with DMEM supplemented with 10% by volume FCS, which was also added with retinoic acid (manufactured by SIGMA) at a final concentration of 0 to 10.0 μM, to stimulate the cells. After 72 hours of culture, the cells were washed twice with HCMF buffer, and the whole medium was replaced with DMEM supplemented with 10% by volume FCS only.
Culturing was continued for 7 days with replacement of a half amount of the medium every 3 days with DMEM supplemented with 10% by volume FCS, and observation was carried out as appropriate. A cell population grown after the RA treatment, which contains undifferentiated cells, was washed once with HCMF, and 3 mM EDTA-0.5% BSA-PBS(−) was added thereto, followed by incubation thereof at 37° C. After collecting cells, the cells were subjected to double staining with CD44 FITC (BD Pharmingen) and CD29 (BD Pharmingen) PE to separate and obtain CD44-positive and CD29-positive cells using Epics ALTRA (Beckman Coulter), and thus a cell population after exclusion of undifferentiated cells, which cell population is composed of only differentiated cells, was obtained. These cells were designated RA-EC cells.

[3] abbreviates: DMSO 5.0 v/v %, 19 culture days.

On to `C[S+](C)[O-]` [DMSO, dimethyl sulfoxide], for which the “Survival of EC cells immediately after treatment” value in the data set on AT805 cells (EC cells) [1] (5% by volume DMSO) was “most cells died immediately after the treatment”. For the same compound, the “CD44-positive and CD29-positive cells” value in the data set with AT805 cells (EC cells) [1] (DMSO 0.5 v/v %, 6 culture days) was determined as 0.3%; in the data set on AT805 cells (EC cells) [1] (DMSO 1.0 v/v %, 6 culture days), 0.5%; in the data set on AT805 cells (EC cells) [1] (DMSO 2.5 v/v %, 6 culture days), 13.7%; in the data set with AT805 cells (EC cells) [1] (setting [3]) it was 93.0%. Besides, the Cell number in the data set on AT805 cells (EC cells) [1] (DMSO 0.5 v/v %, 6 culture days) is on record as 1.15 ×10^7 cells; in the data set with AT805 cells (EC cells) [1] (DMSO 1.0 v/v %, 6 culture days) it was 1.19 ×10^7 cells; with AT805 cells (EC cells) [1] (DMSO 2.5 v/v %, 6 culture days) it was 1.64 ×10^7 cells; in the data set on AT805 cells (EC cells) [1] (setting [3]), 2.83 ×10^7 cells.
On to `CC1=C(/C=C/C(C)=C/C=C/C(C)=C/C(=O)O)C(C)(C)CCC1` [RA, retinoic acid], for which the “CD44-positive and CD29-positive cells” value in the data set with AT805 cells (EC cells) [2] (RA 0.5 μM) was 10.8%; with AT805 cells (EC cells) [2] (RA 1.0 μM), 10.0%; with AT805 cells (EC cells) [2] (RA 2.0 μM) it was 11.3%; with AT805 cells (EC cells) [2] (RA 5.0 μM), 11.5%; with AT805 cells (EC cells) [2] (RA 10.0 μM), 10.4%. In addition, the Cell number with AT805 cells (EC cells) [2] (RA 0.5 μM) is reported as 1.5 ×10^6 cells; in the data set on AT805 cells (EC cells) [2] (RA 1.0 μM) it was 1.1 ×10^6 cells; in the data set with AT805 cells (EC cells) [2] (RA 2.0 μM), 1.3 ×10^6 cells; in the data set with AT805 cells (EC cells) [2] (RA 5.0 μM), 0.5 ×10^6 cells; with AT805 cells (EC cells) [2] (RA 10.0 μM), 0.7 ×10^6 cells.
